Measurements: ChEMBL document CHEMBL4765389, “Antimicrobial and anti-inflammatory activities of short dodecapeptides derived from duck cathelicidin: Plausible mechanism of bactericidal action and endotoxin neutralization” (Eur J Med Chem, 2020)
Calls of active or inactive are those of the source. The calls are words filed in the database; no cut-off is given here.

Key:
[1] = test system: Staphylococcus epidermidis; assay: Antibacterial activity against Staphylococcus epidermidis KCTC 1917 assessed as reduction in bacterial growth incubated for 24 hrs by CLSI based broth dilution method; assay type: functional; settings: read-out: MIC100
Bacillus subtilis = assay: Antibacterial activity against Bacillus subtilis KCTC 3068 assessed as reduction in bacterial growth incubated for 24 hrs by CLSI based broth dilution method; assay type: functional; settings: read-out: MIC100
Staphylococcus aureus [2] = assay: Antibacterial activity against methicillin-resistant Staphylococcus aureus CCARM 3089 assessed as reduction in bacterial growth incubated for 24 hrs by CLSI based broth dilution method; assay type: functional; settings: read-out: MIC100
Staphylococcus aureus [3] = assay: Antibacterial activity against methicillin-resistant Staphylococcus aureus CCARM 3095 assessed as reduction in bacterial growth incubated for 24 hrs by CLSI based broth dilution method; assay type: functional; settings: read-out: MIC100
Enterococcus faecium = assay: Antibacterial activity against vancomycin-resistant Enterococcus faecium ATCC 51559 assessed as reduction in bacterial growth incubated for 24 hrs by CLSI based broth dilution method; assay type: functional; settings: read-out: MIC100
Pseudomonas aeruginosa = assay: Antibacterial activity against Pseudomonas aeruginosa KCTC 1637 assessed as reduction in bacterial growth incubated for 24 hrs by CLSI based broth dilution method; assay type: functional; settings: read-out: MIC100
Salmonella typhimurium = assay: Antibacterial activity against Salmonella typhimurium KCTC 1926 assessed as reduction in bacterial growth incubated for 24 hrs by CLSI based broth dilution method; assay type: functional, Salmonella enterica subsp. enterica serovar Typhimurium; settings: Salmonella enterica, read-out: MIC100
Bacteria = assay: Antibacterial activity against Gram negative bacteria assessed as reduction in bacterial growth incubated for 24 hrs by CLSI based broth dilution method; assay type: functional; settings: read-out: MIC100
Saccharomyces cerevisiae = assay: Antifungal activity against yeast assessed as reduction in fungal growth incubated for 24 hrs by CLSI based broth dilution method; assay type: functional; settings: read-out: MIC100
[4] = Therapeutic index, ratio of HC10 for sheep RBC to geometric mean MIC for gram positive bacteria; assay type: toxicity; settings: sheep red blood cells, read-out: TI
[5] = Therapeutic index, ratio of HC10 for sheep RBC to geometric mean MIC for yeast; assay type: toxicity; settings: sheep red blood cells, read-out: TI
RAW264.7 [6] = assay: Antiinflammatory activity against mouse RAW264.7 cells assessed as reduction in LPS-induced TNFalpha level at 10 uM incubated for 24 hrs by […] relative to control; assay type: functional
RAW264.7 [7] = assay: Antiinflammatory activity against mouse RAW264.7 cells assessed as reduction in LPS-induced TNFalpha mRNA expression at 10 uM incubated for 3 hrs by qRT-PCR analysis; assay type: functional, cell-based
Escherichia coli [8] = assay: Antibacterial activity against Escherichia coli KCTC 1682 assessed as reduction in bacterial growth incubated for 24 hrs in presence of 150 mM NaCl by CLSI based broth dilution method; assay type: functional; settings: read-out: MIC100
Escherichia coli [9] = assay: Antibacterial activity against Escherichia coli KCTC 1682 assessed as reduction in bacterial growth incubated for 24 hrs in presence of 1 mM MgCl2 by CLSI based broth dilution method; assay type: functional; settings: read-out: MIC100
Escherichia coli [10] = assay: Antibacterial activity against Escherichia coli KCTC 1682 assessed as reduction in bacterial growth incubated for 24 hrs in presence of 2.5 mM CaCl2 by CLSI based broth dilution method; assay type: functional; settings: read-out: MIC100
Escherichia coli [11] = assay: Antibacterial activity against Escherichia coli KCTC 1682 assessed as reduction in bacterial growth incubated for 24 hrs in presence of 4 uM FeCl3 by CLSI based broth dilution method; assay type: functional; settings: read-out: MIC100
Staphylococcus aureus [12] = assay: Antibacterial activity against Staphylococcus aureus KCTC 1621 assessed as reduction in bacterial growth incubated for 24 hrs in presence of 150 mM NaCl by CLSI based broth dilution method; assay type: functional; settings: read-out: MIC100
Staphylococcus aureus [13] = assay: Antibacterial activity against Staphylococcus aureus KCTC 1621 assessed as reduction in bacterial growth incubated for 24 hrs in presence of 4.5 mM KCl by CLSI based broth dilution method; assay type: functional; settings: read-out: MIC100
Staphylococcus aureus [14] = assay: Antibacterial activity against Staphylococcus aureus KCTC 1621 assessed as reduction in bacterial growth incubated for 24 hrs in presence of 20 % serum by CLSI based broth dilution method; assay type: functional; settings: read-out: MIC100
Staphylococcus aureus [15] = assay: Antibacterial activity against methicillin-resistant Staphylococcus aureus CCARM 3090 assessed as reduction in bacterial growth incubated for 24 hrs in presence of ciprofloxacin by CLSI based broth dilution method; assay type: functional; settings: read-out: MIC100
Staphylococcus aureus [16] = assay: Antibacterial activity against methicillin-resistant Staphylococcus aureus CCARM 3090 assessed as fractional inhibitory concentration index incubated for 24 hrs in presence of chloramphenicol by CLSI based broth dilution method; assay type: functional
Staphylococcus aureus [17] = assay: Antibacterial activity against methicillin-resistant Staphylococcus aureus CCARM 3090 assessed as fractional inhibitory concentration index incubated for 24 hrs in presence of ciprofloxacin by CLSI based broth dilution method; assay type: functional
Staphylococcus aureus [18] = assay: Antibacterial activity against methicillin-resistant Staphylococcus aureus CCARM 3090 assessed as fractional inhibitory concentration index incubated for 24 hrs in presence of oxacillin by CLSI based broth dilution method; assay type: functional
[19] = Antibacterial activity against multidrug-resistant Pseudomonas aeruginosa CCARM 2095 assessed as reduction in bacterial growth incubated for 24 hrs in presence of chloramphenicol by CLSI based broth dilution method; assay type: functional; settings: read-out: MIC100
[20] = Antibacterial activity against multidrug-resistant Pseudomonas aeruginosa CCARM 2095 assessed as reduction in bacterial growth incubated for 24 hrs in presence of ciprofloxacin by CLSI based broth dilution method; assay type: functional; settings: read-out: MIC100
[21] = Antibacterial activity against multidrug-resistant Pseudomonas aeruginosa CCARM 2095 assessed as reduction in bacterial growth incubated for 24 hrs in presence of oxacillin by CLSI based broth dilution method; assay type: functional; settings: read-out: MIC100
[22] = Antibacterial activity against multidrug-resistant Pseudomonas aeruginosa CCARM 2095 assessed as fractional inhibitory concentration incubated for 24 hrs in presence of ciprofloxacin by CLSI based broth dilution method; assay type: functional
[23] = Antibacterial activity against multidrug-resistant Pseudomonas aeruginosa CCARM 2095 assessed as fractional inhibitory concentration index incubated for 24 hrs in presence of chloramphenicol by CLSI based broth dilution method; assay type: functional
[24] = Antibacterial activity against multidrug-resistant Pseudomonas aeruginosa CCARM 2095 assessed as fractional inhibitory concentration index incubated for 24 hrs in presence of oxacillin by CLSI based broth dilution method; assay type: functional
Escherichia coli [25] = assay: Bacteriostatic activity against Escherichia coli KCTC 1682 assessed as reduction in colony forming unit at 0.5 times MIC measured for 24 hrs by time kill assay; assay type: functional
Cell membrane [26] = assay: Induction of cell membrane permeability in Escherichia coli KCTC 1682 assessed as […] at 16 uM by ONPG dye based spectrophotometry; assay type: subcellular
Cell membrane [27] = assay: Induction of cell membrane permeability in Escherichia coli KCTC 1682 assessed as cytoplasmic membrane […] fluorescent signals at 2 times MIC measured after 1 hr by propidium iodide dye based flow cytometry analysis (reference value: 9.8 %); assay type: subcellular
[28] = Drug uptake in Escherichia coli KCTC 1682 assessed as cytoplasmic accumulation at 2 times MIC incubated for 30 mins by confocal laser scanning microscopy; assay type: ADME; settings: 0.5 h
Lipopolysaccharide (LPS) = assay: Inhibition of Escherichia coli O111:B4 LPS aggregation assessed as increase in FITC-LPS dissociation by spectrofluorometry
RAW264.7 [29] = assay: Antiinflammatory activity in mouse RAW264.7 cells assessed as suppression of LPS binding by measuring LPS-FITC aggregation at 10 uM pretreated with LPS for 1 hr followed by compound addition and measured after 30 mins by flowcytometry analysis (reference value: 67.93 %); assay type: functional; settings: 0.5 h

| Substance | MIC [1] [µM] | MIC (Bacillus subtilis) [µM] | MIC (Staphylococcus aureus [2]) [µM] | MIC (Staphylococcus aureus [3]) [µM] | MIC (Enterococcus faecium) [µM] | MIC (Pseudomonas aeruginosa) [µM] | MIC (Salmonella typhimurium) [µM] | MIC (Bacteria) [µM] | MIC (Saccharomyces cerevisiae) [µM] | selectivity ratio [4] | selectivity ratio [5] | inhibition at 10 µM (RAW264.7 [6]) [%] | inhibition (RAW264.7 [7]) | MIC (Escherichia coli [8]) [µM] | MIC (Escherichia coli [9]) [µM] | MIC (Escherichia coli [10]) [µM] | MIC (Escherichia coli [11]) [µM] | MIC (Staphylococcus aureus [12]) [µM] | MIC (Staphylococcus aureus [13]) [µM] | MIC (Staphylococcus aureus [14]) [µM] | also measured |
| --- | --- | --- | --- | --- | --- | --- | --- | --- | --- | --- | --- | --- | --- | --- | --- | --- | --- | --- | --- | --- | --- |
| H-LIKKIYRKWKRW-NH2 | 4 | 2 | 16 | 8 | 8 | 2 | 2 | 5.6 | 6 | 71.1 | 853 | 47.3 | Active | 4 | 8 | 8 | 8 | 8 | 4 | 4 | MIC (Staphylococcus aureus [15]): 128 µM; fractional inhibitory concentration index (FICI) (Staphylococcus aureus [16]): 0.5; fractional inhibitory concentration index (FICI) (Staphylococcus aureus [17]): 0.5; fractional inhibitory concentration index (FICI) (Staphylococcus aureus [18]): 0.375; MIC [19]: 64 µM; MIC [20]: 64 µM; MIC [21]: 64 µM; FIC [22]: 0.125; fractional inhibitory concentration index (FICI) [23]: 0.313; fractional inhibitory concentration index (FICI) [24]: 0.375; Activity (Escherichia coli [25]): 3 log10CFU/ml; Activity (Cell membrane [26]): inactive; Activity (Cell membrane [27]): 9.53%; Drug uptake [28]: Active; inhibition (Lipopolysaccharide (LPS)): Dose-dependent effect; Activity (RAW264.7 [29]): 32.51% |
| H-LWKKIYRKWKRW-NH2 | 4 | 2 | 16 | 8 | 8 | 2 | 2 | 4 | 6 | 753 | 853 | 65 | Active | 4 | 4 | 4 | 8 | 2 | 4 | 4 | MIC (Staphylococcus aureus [15]): 64 µM; fractional inhibitory concentration index (FICI) (Staphylococcus aureus [16]): 0.5; fractional inhibitory concentration index (FICI) (Staphylococcus aureus [17]): 0.375; fractional inhibitory concentration index (FICI) (Staphylococcus aureus [18]): 0.375; MIC [19]: 128 µM; MIC [20]: 64 µM; MIC [21]: 64 µM; FIC [22]: 0.125; fractional inhibitory concentration index (FICI) [23]: 0.375; fractional inhibitory concentration index (FICI) [24]: 0.375; Activity (Escherichia coli [25]): 3 log10CFU/ml; Activity (Cell membrane [26]): inactive; Activity (Cell membrane [27]): 6.31%; Drug uptake [28]: Active; inhibition (Lipopolysaccharide (LPS)): Dose-dependent effect; Activity (RAW264.7 [29]): 17.64% |
